T1: Flag-epitope tag ZNF281 fusion protein (human, UniProt Q9Y2X9 1-895)
T1 construct: Expressed in transfected HEK293 cells and tested in cell lysate; also called FLAG-tagged ZNF281; Flag-tagged ZNF281
T1 sequence: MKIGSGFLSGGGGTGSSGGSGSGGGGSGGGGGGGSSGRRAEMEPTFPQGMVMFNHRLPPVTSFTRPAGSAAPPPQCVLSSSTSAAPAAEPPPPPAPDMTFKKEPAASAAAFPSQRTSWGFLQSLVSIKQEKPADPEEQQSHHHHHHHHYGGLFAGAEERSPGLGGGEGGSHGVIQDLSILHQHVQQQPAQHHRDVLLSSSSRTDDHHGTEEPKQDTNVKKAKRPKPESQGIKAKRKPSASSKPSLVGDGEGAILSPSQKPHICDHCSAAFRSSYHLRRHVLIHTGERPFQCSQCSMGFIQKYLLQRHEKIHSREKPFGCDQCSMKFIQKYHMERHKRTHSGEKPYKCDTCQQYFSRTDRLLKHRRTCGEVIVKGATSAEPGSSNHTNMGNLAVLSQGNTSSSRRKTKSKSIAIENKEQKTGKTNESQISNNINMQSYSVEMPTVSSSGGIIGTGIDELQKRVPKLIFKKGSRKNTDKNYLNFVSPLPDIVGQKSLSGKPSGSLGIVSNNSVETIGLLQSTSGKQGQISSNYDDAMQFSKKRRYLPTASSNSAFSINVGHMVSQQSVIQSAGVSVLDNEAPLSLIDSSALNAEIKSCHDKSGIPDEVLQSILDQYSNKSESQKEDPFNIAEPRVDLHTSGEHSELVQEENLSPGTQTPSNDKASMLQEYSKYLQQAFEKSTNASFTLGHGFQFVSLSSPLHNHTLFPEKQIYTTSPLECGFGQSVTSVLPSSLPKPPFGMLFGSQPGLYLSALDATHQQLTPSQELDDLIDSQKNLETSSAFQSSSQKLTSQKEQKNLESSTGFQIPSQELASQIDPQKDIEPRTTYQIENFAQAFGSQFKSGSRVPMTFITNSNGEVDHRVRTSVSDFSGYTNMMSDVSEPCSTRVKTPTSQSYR


Assays:
fibroblasts = conditions: added to reprogramming cocktail (GMT); cited from earlier work
5F-reprogrammed TTFs = test: q-PCR of inflammatory and cardiac markers in 5F-reprogrammed TTFs treated with anti-inflammatory drugs; assay type: cell-based, mouse; conditions: drug 10 μM added to 5F, 7 days
Procedure: (§1) Retroviruses production, cellular reprogramming and treatment. For retroviruses production, Platinum E cells were seeded into culture dishes (1×10^5 cells/cm2) one day before transfection in DMEM supplemented with 10% FBS and 1% penicillin/streptomycin. Cells reached ˜80% confluency on the day of transfection. DNA plasmids were transfected into Platinum E cells using FuGENE 6 transfection reagent. Twenty-four hours after transfection, wild type or αMHC-GFP tail-tip fibroblasts were seeded into culture dishes or plates that were precoated with SureCoat (Cellutron) for one hour at a density of 6×10^4/cm^2. Forty-eight hours after transfection, polybrene was added to viral medium that was filtered through a 0.45-μm filter at a concentration of […]. The mixture replaced the growth medium in the cell culture plate with tail-tip fibroblasts. The viral infection was serially repeated twice. Twenty-four hours after the second infection, the viral medium was replaced with induction medium, composed of DMEM/199 (4:1), 10% conditioned medium obtained from neonatal rat cardiomyocyte culture, 10% FBS, 5% horse serum, 1% penicillin/streptomycin, 1% nonessential amino acids, 1% essential amino acids, 1% B-27, 1% insulin-selenium-transferrin, 1% vitamin mixture, and 1% sodium pyruvate (Invitrogen). […]
Quantitative mRNA measurement. […]

[1] = tested on: 5F-reprogrammed adult αMHC-GFP transgenic TTFs; test: Immunocytochemistry and flow cytometry of αMHC-GFP and cTnT in 5F-reprogrammed TTFs treated with anti-inflammatory drugs; assay type: cell-based, mouse; conditions: drug added to 5F, 7 days
Procedure: as §1, with “twice.” for “twice. Twenty-four hours after the second infection, the viral medium was replaced with induction medium, composed of DMEM/199 (4:1), 10% conditioned medium obtained from neonatal rat cardiomyocyte culture, 10% FBS, 5% horse serum, 1% penicillin/streptomycin, 1% nonessential amino acids, 1% essential amino acids, 1% B-27, 1% insulin-selenium-transferrin, 1% vitamin mixture, and 1% sodium pyruvate (Invitrogen).”
Flow Cytometry. […] Cells were washed with Perm/Wash buffer, and then analyzed using FACS Caliber (BD Sciences) and FlowJo software. […]

[2] = tested on: adult tail-tip fibroblasts (TTFs) from αMHC-GFP mice; test: Human retroviral ORF cDNA library screen for AGHMT-mediated cardiac reprogramming (high-throughput imaging of αMHC-GFP and cTnT); assay type: cell-based, mouse; conditions: for cTnT Z-score / αMHC Z-score: individual cDNA expressed together with 5F (AGHMT), 9 days, Z-score ≥2 activator, ≤−2 inhibitor; for αMHC Z-score: αMHC-GFP; for 5F-mediated cardiac reprogramming (αMHC-GFP, cTnT immunocytochemistry): virus added to 5F (AGHMT), 9 days post-infection
Excerpt: Isolation of mouse tail-tip fibroblast. For isolation of adult mouse tail-tip fibroblasts, tails were cut from 8-12 weeks old adult wild-type or αMHC-GFP mouse and were minced into […] with razor blades after peeling off the superficial dermis. The minced tails were placed in fibroblast growth medium (DMEM supplemented with 10% FBS and 1% (vol/vol) penicillin/streptomycin). Tail-tip fibroblasts migrated out from the explants within 1 week and were passaged one time before use.
Construction of human retroviral ORFs library. Gateway-compatible Human ORFs pEntry vectors were purchased from Thermo Fisher Scientific. Gateway-compatible retroviral destination vector, pMXs-gw, was a gift from Shinya Yamanaka (Addgene plasmid #18656) (Takahashi, 2006). The inventors transferred each ORF individually into pMXs-gw by performing site-specific LR recombination using Gateway LR Clonase II Enzyme Mix kit (Thermo Fisher Scientific).
Retroviruses production, cellular reprogramming and treatment. For retroviruses production, Platinum E cells were seeded into culture dishes (1×10^5 cells/cm2) one day before transfection in DMEM supplemented with 10% FBS and 1% penicillin/streptomycin. Cells reached ˜80% confluency on the day of transfection. DNA plasmids were transfected into Platinum E cells using FuGENE 6 transfection reagent. Twenty-four hours after transfection, wild type or αMHC-GFP tail-tip fibroblasts were seeded into culture dishes or plates that were precoated with SureCoat (Cellutron) for one hour at a density of 6×10^4/cm^2. Forty-eight hours after transfection, polybrene was added to viral medium that was filtered through a 0.45-μm filter at a concentration of […]. The mixture replaced the growth medium in the cell culture plate with tail-tip fibroblasts. The viral infection was serially repeated twice. Twenty-four hours after the second infection, the viral medium was replaced with induction medium, composed of DMEM/199 (4:1), 10% conditioned medium obtained from neonatal rat cardiomyocyte culture, 10% FBS, 5% horse serum, 1% penicillin/streptomycin, 1% nonessential amino acids, 1% essential amino acids, 1% B-27, 1% insulin-selenium-transferrin, 1% vitamin mixture, and 1% sodium pyruvate (Invitrogen). Small molecule treatments were used throughout the reprogramming process […] (Sigma).
Immunocytochemistry. For immunocytochemistry, cells were fixed in 4% paraformaldehyde for 15 min and permeabilized with 0.1% Triton-X in room temperature. Cells were washed with PBS for three times followed by blocking with 10% goat serum for 1 hr. Cells then were incubated with mouse monoclonal anti-cardiac Troponin T (cTnT) antibody (Thermo Scientific) at 1:500 dilutions and rabbit anti-GFP antibody (Thermo Scientific) at 1:500 dilutions in 5% Goat serum for 1 hr. After washing with PBS three times, Cells then were incubated with donkey anti-mouse alexa fluor 647 (Invitrogen) at 1:500 and goat anti-rabbit Alexa fluor 488 at 1:500 (Invitrogen).
Identification of activators and inhibitors of cardiac reprogramming in adult fibroblasts. The inventors' previously optimized cardiac reprogramming protocol with five factors (AGHMT, also called 5F) was able to reprogram ˜3% efficiency of adult TTFs to iCMs as measured by activation of a cardiac-specific αMHC-GFP transgene and cardiac troponin T (cTnT) immunostaining (Zhou et al., 2015). To identify additional regulators of cardiac reprogramming, the inventors created a retroviral expression library consisting of 1,052 open reading frame (ORF) cDNAs representing 786 human transcription factor, cytokine, epigenetic regulator and nuclear receptor genes (Table 51). The inventors screened this expression library for activators and inhibitors of cardiac reprogramming by expressing individual cDNAs together with 5F in isolated TTFs from αMHC-GFP mice, as schematized in FIG. 1A. […]

[3] = target: GATA4 (expression plasmid, luciferase reporter assay) (human) (UniProt P43694); test: cell-based or functional assay
Sequence of GATA4 (expression plasmid, luciferase reporter assay) (human) (P43694 whole entry, the tested form may be a part): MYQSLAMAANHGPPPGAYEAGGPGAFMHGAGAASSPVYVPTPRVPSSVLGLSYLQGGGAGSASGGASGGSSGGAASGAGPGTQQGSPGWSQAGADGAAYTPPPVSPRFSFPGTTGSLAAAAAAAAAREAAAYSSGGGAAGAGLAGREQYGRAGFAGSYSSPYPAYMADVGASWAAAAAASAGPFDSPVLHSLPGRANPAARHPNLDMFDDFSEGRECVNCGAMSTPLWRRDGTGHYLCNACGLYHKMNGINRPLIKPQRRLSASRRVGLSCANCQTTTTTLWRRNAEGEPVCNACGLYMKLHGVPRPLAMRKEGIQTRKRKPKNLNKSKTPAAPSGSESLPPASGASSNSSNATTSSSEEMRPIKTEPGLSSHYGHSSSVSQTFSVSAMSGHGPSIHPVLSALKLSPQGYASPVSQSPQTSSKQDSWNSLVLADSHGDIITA

[4] = target: T1, Flag-epitope tag ZNF281 fusion protein; test: co-immunoprecipitation from transfected HEK293 cells (anti-FLAG IP, anti-Myc blot)
Procedure: FIGS. 6A-F. ZNF281 interacts with GATA4 to synergistically activate cardiac genes. (FIG. 6A) Co-immunoprecipitation assays were performed using HEK293 cells transfected with equal amounts of plasmid DNA encoding Myc-tagged GATA4, HAND2, MEF2c, or TBX5 and/or Flag-tagged ZNF281. IP, immunoprecipitation; IB, immunoblot. (FIG. 6B) Luciferase reporter assays were performed using HEK293 cells transfected with equal amounts of ZNF281 and/or GATA4 expression plasmids, as indicated, along with αMHC-luciferase reporter plasmid. (FIG. 6C) Heat maps showing ChIP-seq data for H3K27ac in adult mouse heart, and ZNF281 and GATA4 binding in reprogrammed TTFs at ±5 kB around the peak center. ChIP-seq experiments were performed using TTFs infected with 6F for 2 days. (FIG. 6D) ZNF281 binding motif enriched within ZNF281 binding peaks. (FIG. 6E) GATA4 binding motif enriched within GATA4 binding peaks. (FIG. 6F) Venn diagram showing the number of overlapping peaks between Heart H3K27ac, ZNF281 and GATA4. *P<0.05
Immunoprecipitation and Western Blot Analysis. Flag-epitope tag ZNF281 fusion protein were co-expressed with myc-epitope tag fusion GATA4, HAND2, MEF2C or TBX5 in HEK293 cells for 48 hours. […] The final elution and the input obtained before the immunoprecipitation was analyzed by SDS-PAGE western blot using a mouse monoclonal anti-Myc antibody (Novex) or mouse monoclonal anti-FLAG antibody (Sigma).

Molecule | cTnT Z-score [2] | αMHC Z-score [2] | 5F-mediated cardiac reprogramming (αMHC-GFP, cTnT immunocytochemistry) [2] | other results
C[C@H](NC(=O)Cc1cc(F)cc(F)c1)C(=O)N[C@H](C(=O)OC(C)(C)C)c1ccccc1 [DAPT] | – | – | – | cardiac reprogramming (fibroblasts): enhance cardiac reprogramming
NC(=O)c1ccc(-c2nc(-c3ccc4c(c3)OCO4)c(-c3ccccn3)[nH]2)cc1 [SB431542] | – | – | – | cardiac reprogramming (fibroblasts): enhance cardiac reprogramming
COc1ccc2cc(CCC(C)=O)ccc2c1 [nabumetone] | – | – | – | expression of inflammatory markers (IL6, Ccl2, and Ptgs1) (5F-reprogrammed TTFs): decreased; cardiac reprogramming efficiency [1]: greatly enhanced
Achaete-scute homolog 1 [ASCL1] | 3.9 | 0.0 | greatly enhanced reprogramming | –
BMP2 | 0.5 | −3.2 | – | –
PHD finger protein 7 [PHF7] | 9.7 | 7.4 | enhanced reprogramming | –
ZNF281 (expression plasmid, luciferase reporter assay) (from UniProt Q9Y2X9 1-895) | – | – | – | αMHC-Luciferase reporter activation [3]: 15 fold
forkhead box protein A3 [FOXA3] | −3.1 | −4.3 | practically abolished | –
myc-epitope tag fusion TBX5 (other, not shown: small tags and cut ends, Expressed in transfected HEK293 cells; The tag's position is unknown; also called Myc-tagged TBX5; T-box transcription factor TBX5) MADADEGFGLAHTPLEPDAKDLPCDSKPESALGAPSKSPSSPQAAFTQQGMEGIKVFLHERELWLKFHEVGTEMIITKAGRRMFPSYKVKVTGLNPKTKYILLMDIVPADDHRYKFADNKWSVTGKAEPAMPGRLYVHPDSPATGAHWMRQLVSFQKLKLTNNHLDPFGHIILNSMHKYQPRLHIVKADENNGFGSKNTAFCTHVFPETAFIAVTSYQNHKITQLKIENNPFAKGFRGSDDMELHRMSRMQSKEYPVVPRSTVRQKVASNHSPFSSESRALSTSSNLGSQYQCENGVSGPSQDLLPPPNPYPLPQEHSQIYHCTKRKEEECSTTDHPYKKPYMETSPSEEDSFYRSSYPQQQGLGASYRTESAQRQACMYASSAPPSEPVPSLEDISCNTWPSMPSYSSCTVTTVQPMDRLPYQHFSAHFTSGPLVPRLAGMANHGSPQLGEGMFQHQTSVAHQPVVRQCGPQTGLQSPGTLQPPEFLYSHGVPRTLSPHQYHSVHGVGMVPEWSDNS | – | – | – | binding result [4]: no binding
myc-epitope tag fusion HAND2 (other, not shown: small tags and cut ends, Expressed in transfected HEK293 cells; The tag's position is unknown; also called Myc-tagged HAND2; Heart- and neural crest derivatives-expressed protein 2) MSLVGGFPHHPVVHHEGYPFAAAAAAAAAAAASRCSHEENPYFHGWLIGHPEMSPPDYSMALSYSPEYASGAAGLDHSHYGGVPPGAGPPGLGGPRPVKRRGTANRKERRRTQSINSAFAELRECIPNVPADTKLSKIKTLRLATSYIAYLMDLLAKDDQNGEAEAFKAEIKKTDVKEEKRKKELNEILKSTVSSNDKKTKGRTGWPQHVWALELKQ | – | – | – | binding result [4]: no binding

Source: US20210180023A1, “CARDIAC REPAIR BY REPROGRAMMING OF ADULT CARDIAC FIBROBLASTS INTO CARDIOMYOCYTES” (The Board of Regents of the University of Texas System, priority 2017, published 2021)
